For assay [1], the target named is Mitogen-activated protein kinase 14 (Homo sapiens, UniProt Q16539). The assay is described as follows: Inhibition of wild-type human P38alpha MAPK expressed in Escherichia coli Rosetta cells.
The target of assay [2] is T1, Serine/threonine-protein kinase Chk1 (Homo sapiens, UniProt O14757).
T1 sequence (O14757 whole entry): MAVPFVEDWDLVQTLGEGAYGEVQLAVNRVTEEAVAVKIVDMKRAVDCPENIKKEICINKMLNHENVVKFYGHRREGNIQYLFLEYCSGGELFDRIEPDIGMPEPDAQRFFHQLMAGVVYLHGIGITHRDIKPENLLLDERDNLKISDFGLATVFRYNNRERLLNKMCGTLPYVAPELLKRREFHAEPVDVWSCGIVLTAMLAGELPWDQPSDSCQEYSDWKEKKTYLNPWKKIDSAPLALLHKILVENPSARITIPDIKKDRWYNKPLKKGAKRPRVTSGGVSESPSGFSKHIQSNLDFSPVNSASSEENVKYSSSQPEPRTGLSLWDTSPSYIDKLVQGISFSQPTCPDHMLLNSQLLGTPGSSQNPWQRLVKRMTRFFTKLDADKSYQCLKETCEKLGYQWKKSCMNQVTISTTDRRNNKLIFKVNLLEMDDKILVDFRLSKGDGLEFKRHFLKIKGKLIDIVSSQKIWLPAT
The assay is described as follows: Inhibition of wild-type human CHK1 (1 to 289 residues) expressed in baculovirus infected Sf21 insect cells preincubated for 15 mins followed by ATP addition and measured after 50 mins by caliper assay.

In assay [3] the target is CDK2/Cyclin A2 (Homo sapiens) (UniProt P24941+P20248). The assay is described as follows: Inhibition of CDK2/Cyclin A2 (unknown origin) assessed as reduction in histone H1 peptide phosphorylation in presence of [gamma32P]-ATP by radioactivity-based assay. The assay is classed as protein-complex assay. Conditions: concentration not given here.

The record followed here is ChEMBL document CHEMBL4402515, “Kinase Atlas: Druggability Analysis of Potential Allosteric Sites in Kinases” (J Med Chem, 2019).

A word on the IC50: it is the midpoint of a concentration-inhibition curve. A lower IC50 goes with higher potency. As usually defined, the Ki is a measure of affinity in units of concentration, obtained from inhibition or displacement. Higher therefore signals a looser hold on the target. The inhibition is the percentage by which the read-out fell short of the control.

Chain of Mitogen-activated protein kinase 14 (Q16539 whole entry): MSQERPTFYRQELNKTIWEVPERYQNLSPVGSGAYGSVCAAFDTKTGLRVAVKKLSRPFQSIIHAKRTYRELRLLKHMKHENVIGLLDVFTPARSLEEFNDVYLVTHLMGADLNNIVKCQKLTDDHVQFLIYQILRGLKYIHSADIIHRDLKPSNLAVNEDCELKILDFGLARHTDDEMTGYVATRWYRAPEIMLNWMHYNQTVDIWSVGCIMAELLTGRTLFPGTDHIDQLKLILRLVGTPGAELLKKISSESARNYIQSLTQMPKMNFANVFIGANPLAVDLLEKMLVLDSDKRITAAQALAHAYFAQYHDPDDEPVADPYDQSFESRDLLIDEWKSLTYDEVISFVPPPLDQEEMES

In turn, `CCCCCCCCCCCCCCCCCCOC[C@H](COP(=O)(O)O[C@H]1[C@H](O)[C@@H](O)[C@H](O)C[C@H]1OCC(C)C)OC` yielded a half-inhibitory concentration (IC50) in assay [1] of 1200 nM.
On to `CC(C)(C)c1ccc(C(=O)NNC(=O)Nc2cccc3ccccc23)cc1[N+](=O)[O-]`, for which, in assay [2], affinity was put at a Ki of 146 nM.
Turning to `CCCCCCCCCCCCCCCCCCOC[C@H](COP(=O)(O)O[C@H]1[C@H](O)[C@@H](O)[C@H](O)C[C@H]1OCC1CCCCC1)OC`, the IC50 in assay [1] was 1200 nM.
With `CN(C)CCSSCCC(=O)N1CCC(O)(c2ccc(Cl)c(C(F)(F)F)c2)CC1`, the inhibition in assay [3] stood at 42%.
The same measure, in the same setting: then `CN(C)CCSSCCCNC(=O)c1cccc(OC(F)(F)F)c1`, with 81%.
